# Key:
# [1] = target: T1, 72 kDa type IV collagenase (Homo sapiens, UniProt P08253); assay: Inhibitory activity against matrix metalloprotease-2; NA denotes no activity upto solubility limit
# [2] = target: T2, Macrophage metalloelastase (Homo sapiens, UniProt P39900); assay: Inhibitory activity against matrix metalloprotease-12; NA denotes no activity upto solubility limit
# Interstitial collagenase [3] = target: T3, Interstitial collagenase (Homo sapiens, UniProt P03956); assay: Inhibitory activity against matrix metalloprotease-1
# T3 sequence (P03956 whole entry): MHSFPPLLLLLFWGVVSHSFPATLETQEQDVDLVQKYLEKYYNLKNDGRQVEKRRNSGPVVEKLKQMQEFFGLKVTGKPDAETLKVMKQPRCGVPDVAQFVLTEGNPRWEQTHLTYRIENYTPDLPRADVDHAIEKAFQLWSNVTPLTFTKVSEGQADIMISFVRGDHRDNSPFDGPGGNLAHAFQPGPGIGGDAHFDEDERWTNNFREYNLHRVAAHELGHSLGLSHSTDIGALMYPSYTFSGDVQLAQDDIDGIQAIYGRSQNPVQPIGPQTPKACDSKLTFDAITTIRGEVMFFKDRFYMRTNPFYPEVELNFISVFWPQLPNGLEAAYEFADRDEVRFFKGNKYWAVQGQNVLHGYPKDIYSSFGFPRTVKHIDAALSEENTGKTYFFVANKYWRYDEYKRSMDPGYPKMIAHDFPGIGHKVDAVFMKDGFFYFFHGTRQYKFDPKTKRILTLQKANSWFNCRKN
# [4] = target: T4, Matrix metalloproteinase-9 (Homo sapiens, UniProt P14780); assay: Inhibitory activity against matrix metalloprotease-9
# T4 sequence (P14780 whole entry): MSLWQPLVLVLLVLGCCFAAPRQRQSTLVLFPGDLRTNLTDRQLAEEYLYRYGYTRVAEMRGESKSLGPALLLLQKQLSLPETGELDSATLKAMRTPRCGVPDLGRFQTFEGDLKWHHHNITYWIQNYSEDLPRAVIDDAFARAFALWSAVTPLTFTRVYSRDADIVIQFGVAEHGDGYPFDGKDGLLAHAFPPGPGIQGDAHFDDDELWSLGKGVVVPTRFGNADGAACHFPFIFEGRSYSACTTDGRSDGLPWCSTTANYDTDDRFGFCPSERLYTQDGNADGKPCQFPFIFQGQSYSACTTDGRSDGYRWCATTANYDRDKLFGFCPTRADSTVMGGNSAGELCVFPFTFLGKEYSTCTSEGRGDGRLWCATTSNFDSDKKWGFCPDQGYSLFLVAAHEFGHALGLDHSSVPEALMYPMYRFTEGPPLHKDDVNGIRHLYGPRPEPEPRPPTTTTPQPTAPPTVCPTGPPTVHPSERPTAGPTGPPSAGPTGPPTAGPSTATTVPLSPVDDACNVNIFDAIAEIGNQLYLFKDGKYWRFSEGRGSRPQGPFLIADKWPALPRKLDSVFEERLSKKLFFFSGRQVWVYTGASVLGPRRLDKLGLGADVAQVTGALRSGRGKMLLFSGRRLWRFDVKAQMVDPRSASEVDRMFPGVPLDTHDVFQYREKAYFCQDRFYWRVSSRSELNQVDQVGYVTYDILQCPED
# [5] = target: T1, 72 kDa type IV collagenase; assay: Inhibitory activity against matrix metalloprotease-2
# [6] = target: T2, Macrophage metalloelastase; assay: Inhibitory activity against matrix metalloprotease-12
# Interstitial collagenase [7] = target: T3, Interstitial collagenase; assay: Inhibitory activity against matrix metalloprotease-1; NA denotes no activity upto solubility limit
# [8] = target: T4, Matrix metalloproteinase-9; assay: Inhibitory activity against matrix metalloprotease-9; NA denotes no activity upto solubility limit
# Interstitial collagenase [9] = target: T3, Interstitial collagenase; assay: Inhibitory activity against matrix metalloprotease-1; F denotes no activity was observed upto the concentration that fluorescence could be compensated for
# [10] = target: T4, Matrix metalloproteinase-9; assay: Inhibitory activity against matrix metalloprotease-9; F denotes no activity was observed upto the concentration that fluorescence could be compensated for
# T2 sequence (P39900 whole entry): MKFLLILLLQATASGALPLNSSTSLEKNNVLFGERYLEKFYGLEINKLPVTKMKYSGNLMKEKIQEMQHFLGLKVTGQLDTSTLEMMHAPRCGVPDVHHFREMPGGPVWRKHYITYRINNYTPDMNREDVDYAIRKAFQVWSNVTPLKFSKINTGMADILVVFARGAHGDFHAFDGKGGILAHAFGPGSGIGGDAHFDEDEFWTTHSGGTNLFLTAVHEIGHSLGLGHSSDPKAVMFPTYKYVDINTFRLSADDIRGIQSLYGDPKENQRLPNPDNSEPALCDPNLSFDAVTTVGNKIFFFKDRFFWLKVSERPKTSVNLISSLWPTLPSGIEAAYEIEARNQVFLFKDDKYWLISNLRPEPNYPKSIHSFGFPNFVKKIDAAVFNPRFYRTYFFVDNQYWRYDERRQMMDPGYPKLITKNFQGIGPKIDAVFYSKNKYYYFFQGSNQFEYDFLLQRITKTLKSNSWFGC
# T1 sequence (P08253 whole entry): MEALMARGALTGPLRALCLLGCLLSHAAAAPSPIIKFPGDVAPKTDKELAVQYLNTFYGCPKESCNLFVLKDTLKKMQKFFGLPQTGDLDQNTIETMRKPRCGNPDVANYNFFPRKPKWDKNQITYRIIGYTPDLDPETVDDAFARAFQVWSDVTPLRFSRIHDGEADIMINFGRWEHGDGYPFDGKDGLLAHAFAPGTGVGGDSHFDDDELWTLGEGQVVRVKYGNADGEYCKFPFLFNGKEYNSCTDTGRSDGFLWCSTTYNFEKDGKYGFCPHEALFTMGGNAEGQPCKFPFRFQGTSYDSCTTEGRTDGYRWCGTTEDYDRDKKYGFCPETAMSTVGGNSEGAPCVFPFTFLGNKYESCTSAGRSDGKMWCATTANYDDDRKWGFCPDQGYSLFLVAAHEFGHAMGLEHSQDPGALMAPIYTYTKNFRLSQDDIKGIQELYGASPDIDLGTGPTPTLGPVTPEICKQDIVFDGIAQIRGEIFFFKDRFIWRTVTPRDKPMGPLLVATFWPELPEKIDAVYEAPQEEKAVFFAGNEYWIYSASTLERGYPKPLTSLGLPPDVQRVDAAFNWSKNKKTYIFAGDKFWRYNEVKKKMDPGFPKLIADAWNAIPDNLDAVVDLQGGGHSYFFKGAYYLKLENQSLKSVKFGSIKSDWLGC
Ki [1],Ki [2],Ki (Interstitial collagenase [3]) [µM],Ki [4] [µM],Ki (Interstitial collagenase [7]),Compound,also measured
No Activity,No Activity,64,,,C=C[C@@H]1OC(c2ccc(C)cc2)=N[C@H]1Sc1ccccc1,
,,,40,,C=C[C@@H]1OC(/C=C/c2ccccc2)=N[C@H]1CO,
No Activity,No Activity,> 300,22,,C=C[C@@H]1OC(/C=C/c2ccc(Br)cc2)=N[C@H]1CO,
No Activity,No Activity,> 200,88,,C=C[C@@H]1OC(c2ccc(Br)cc2)=N[C@H]1SC(C)=O,
,,> 100,> 100,,C=C[C@@H]1OC(c2ccc(C)cc2)=N[C@H]1S,Ki [5]: 88 µM; Ki [6]: > 300 µM
,,,24,No Activity,C=C[C@@H]1OC(c2ccc(-c3ccccc3)cc2)=N[C@H]1CO,
,,,32,,C=C[C@@H]1OC(c2ccc(Oc3ccccc3)cc2)=N[C@H]1CO,
No Activity,No Activity,,,,C=C[C@@H]1OC(/C=C/c2ccc(-c3ccccc3)cc2)=N[C@H]1CO,Ki [8]: No Activity
No Activity,No Activity,> 100,> 100,,C=C[C@@H]1OC(/C=C/c2ccccc2)=N[C@H]1Sc1ccccc1,
,,> 200,> 100,,C=C[C@@H]1OC(c2ccc(Br)cc2)=N[C@H]1S,
No Activity,No Activity,,,No Activity,C=CC1=N[C@@H](CO)[C@H](C=C)O1,Ki [8]: No Activity
,,,> 100,No Activity,C=C[C@@H]1OC(/C=C/c2ccccc2)=N[C@H]1SC(C)=O,Ki [6]: > 300 µM
No Activity,,,,No Activity,C=C[C@@H]1OC(CCc2ccccc2)=N[C@H]1CO,Ki [8]: No Activity
No Activity,No Activity,> 400,81,,C=C[C@@H]1OC(c2ccc(-c3ccccc3)cc2)=N[C@H]1SC(C)=O,
No Activity,No Activity,> 100,> 100,,C=C[C@@H]1OC(c2ccc(Cl)cc2)=N[C@H]1S,
No Activity,No Activity,,,No Activity,C=C[C@@H]1OC(c2ccc(OC)cc2)=N[C@H]1CO,Ki [8]: No Activity
No Activity,No Activity,,,No Activity,C=C[C@@H]1OC(c2ccc(F)cc2)=N[C@H]1CO,Ki [8]: No Activity

Ki [1],Ki [2],Ki (Interstitial collagenase [3]) [µM],Ki [4] [µM],Ki (Interstitial collagenase [7]),Compound,also measured
No Activity,No Activity,,> 100,No Activity,C=C[C@@H]1OC(c2ccc(C)cc2)=N[C@H]1SC(C)=O,
No Activity,No Activity,,68,No Activity,C=C[C@@H]1OC(c2ccc(C)cc2)=N[C@H]1CO,
No Activity,No Activity,> 500,6,,C=C[C@@H]1OC(Cc2ccccc2)=N[C@H]1CO,
No Activity,,> 100,,,C=C[C@@H]1OC(c2ccc(Cl)cc2)=N[C@H]1SC(C)=O,
,,,94,,C=C[C@@H]1OC(c2ccc(Br)cc2)=N[C@H]1Sc1ccccc1,
No Activity,,,> 100,No Activity,C=C[C@@H]1OC(c2ccc(-c3ccccc3)cc2)=N[C@H]1Sc1ccccc1,
No Activity,No Activity,46,65,,C=C[C@@H]1OC(C#Cc2ccccc2)=N[C@H]1CO,
,,,,,C=C[C@@H]1OC(c2ccc([N+](=O)[O-])cc2)=N[C@H]1CO,Ki [6]: > 100 µM; Ki (Interstitial collagenase [9]): Fluorescence interfered with assay; Ki [10]: Fluorescence interfered with assay
No Activity,No Activity,,,No Activity,C=C[C@@H]1OC(C2CCCCC2)=N[C@H]1CO,Ki [8]: No Activity
,,,9,No Activity,C=C[C@@H]1OC(c2ccc(Br)cc2)=N[C@H]1CO,Ki [5]: > 600 µM; Ki [6]: > 300 µM
,,,> 2000,,C=C[C@@H]1OC(CCCCC)=N[C@H]1CO,
,No Activity,,> 200,No Activity,C=C[C@@H]1OC(c2ccc(Cl)cc2)=N[C@H]1Sc1ccccc1,
,No Activity,> 300,33,,C=C[C@@H]1OC(c2ccc(Cl)cc2)=N[C@H]1CO,
,,,> 4000,No Activity,C=C[C@@H]1OC(c2ccccc2)=N[C@H]1CO,Ki [5]: > 2000 µM; Ki [6]: > 2000 µM
,,,> 2000,,C=C[C@@H]1OC(CCCCCCC)=N[C@H]1CO,
No Activity,No Activity,92,94,,C=C[C@@H]1OC(/C=C/c2ccccc2)=N[C@H]1S,
,,32,8,,C=C[C@@H]1OC(/C=C\C=C\c2ccccc2)=N[C@H]1CO,Ki [5]: 153 µM; Ki [6]: 49 µM
